Where two headings read alike, the source gives them in different places.
Key:
B16-F10 cells = assay: Inhibition of α-MSH-stimulated melanogenesis (intracellular melanin) in B16-F10 cells; format: cell-based; settings: for percent inhibition of intracellular melanin / inhibition at 50 µM: 50 μM; for percent inhibition of intracellular melanin / inhibition at 10 µM / inhibition at 50 µM: α-MSH (0.1 μM) stimulation; for inhibition at 10 µM / inhibition at 50 µM: Mus musculus, read-out: percent inhibition of intracellular melanin
Method: B16-F10 cells are inoculated in 96-well plates in DMEM (Dulbecco's Modified Eagle's Medium) supplemented with Foetal Calf Serum (FCS) and incubated for 24 hours at 37° C., 5% CO2. Melanogenesis is stimulated by α-MSH (0.1 μM) for 3 or 5 days. Each concentration of active substance is tested in triplicate. Total melanin and intracellular melanin dissolved in lysis buffer are then assayed by reading absorbance at 405 nm. Total proteins are assayed in the lysate according to protocol “SRD/TO/154/012” and the results are expressed in mg melanin/mg proteins. The percentage of activity is calculated as follows: % inhibition=[([…])/NMC]×100 NMC being the normalised mean of the control NMT being the normalised mean of the treated

[1] = compared with delta-tocopherol; cited from earlier work
glucocerebrosidase = molecular target: T1, glucocerebrosidase (Homo sapiens, UniProt P04062); settings: compared with reference derivative 4-methylumbelliferyl glucopyranoside; cited from earlier work
T1 sequence (P04062 40-536): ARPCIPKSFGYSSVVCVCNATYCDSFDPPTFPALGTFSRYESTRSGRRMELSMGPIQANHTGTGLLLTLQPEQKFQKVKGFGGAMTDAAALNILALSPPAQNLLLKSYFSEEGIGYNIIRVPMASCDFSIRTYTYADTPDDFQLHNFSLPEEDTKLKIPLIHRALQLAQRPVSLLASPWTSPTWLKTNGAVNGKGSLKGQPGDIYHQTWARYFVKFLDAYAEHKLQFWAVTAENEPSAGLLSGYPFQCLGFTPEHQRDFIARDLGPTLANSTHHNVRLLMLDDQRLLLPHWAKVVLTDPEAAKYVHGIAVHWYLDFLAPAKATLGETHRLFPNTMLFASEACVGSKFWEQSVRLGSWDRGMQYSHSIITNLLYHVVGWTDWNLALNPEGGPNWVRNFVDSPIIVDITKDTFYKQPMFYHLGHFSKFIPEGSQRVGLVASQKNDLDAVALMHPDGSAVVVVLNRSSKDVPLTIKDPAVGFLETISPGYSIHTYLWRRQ

SMILES | percent inhibition of intracellular melanin (B16-F10 cells; 3 days) [%] | percent inhibition of intracellular melanin (B16-F10 cells; 5 days) [%] | antioxidant capacity [1] | inhibition at 10 µM (B16-F10 cells; B16-F10, 72 h, 3 days) [%] | inhibition at 50 µM (B16-F10 cells; B16-F10, 72 h, 3 days) [%] | inhibition at 10 µM (B16-F10 cells; B16-F10, 120 h, 5 days) [%] | inhibition at 50 µM (B16-F10 cells; B16-F10, 120 h, 5 days) [%] | depigmenting activity (B16-F10 cells; compared with delta-tocopherol (see example 1)) | release of delta-tocopherol by enzymatic hydrolysis (glucocerebrosidase)
Cc1cc(O)cc2c1O[C@](C)(CCC[C@H](C)CCC[C@H](C)CCCC(C)C)CC2 [Delta-tocopherol, delta-tocopherol, reference compound] | 41 | 48 |  |  |  |  |  |  | 
Cc1cc(O[C@@H]2O[C@H](CO)[C@@H](O)[C@H](O)[C@H]2O)cc2c1O[C@](C)(CCC[C@H](C)CCC[C@H](C)CCCC(C)C)CC2 [Delta-tocopheryl-glucopyranoside, delta-tocopheryl-glucopyranoside] |  |  | weak antioxidant capacity compared to that of delta-tocopherol | 22 | 68 | 38 | 90 | quite higher than that of delta-tocopherol | slowly releases delta-tocopherol, with lower kinetics than a reference derivative
